What all share (format): binding
Assay [1] concerns 455 wild-type and mutant human protein and lipid kinases. The assay is described as follows: KINOMEscan panel summary. As to conditions: 1 μM.
A further assay addresses T1, ANKK1 (Homo sapiens, UniProt Q8NFD2).
T1 construct: purchased Eurofins DiscoverX KINOMEscan
T1 sequence (Q8NFD2 1-765): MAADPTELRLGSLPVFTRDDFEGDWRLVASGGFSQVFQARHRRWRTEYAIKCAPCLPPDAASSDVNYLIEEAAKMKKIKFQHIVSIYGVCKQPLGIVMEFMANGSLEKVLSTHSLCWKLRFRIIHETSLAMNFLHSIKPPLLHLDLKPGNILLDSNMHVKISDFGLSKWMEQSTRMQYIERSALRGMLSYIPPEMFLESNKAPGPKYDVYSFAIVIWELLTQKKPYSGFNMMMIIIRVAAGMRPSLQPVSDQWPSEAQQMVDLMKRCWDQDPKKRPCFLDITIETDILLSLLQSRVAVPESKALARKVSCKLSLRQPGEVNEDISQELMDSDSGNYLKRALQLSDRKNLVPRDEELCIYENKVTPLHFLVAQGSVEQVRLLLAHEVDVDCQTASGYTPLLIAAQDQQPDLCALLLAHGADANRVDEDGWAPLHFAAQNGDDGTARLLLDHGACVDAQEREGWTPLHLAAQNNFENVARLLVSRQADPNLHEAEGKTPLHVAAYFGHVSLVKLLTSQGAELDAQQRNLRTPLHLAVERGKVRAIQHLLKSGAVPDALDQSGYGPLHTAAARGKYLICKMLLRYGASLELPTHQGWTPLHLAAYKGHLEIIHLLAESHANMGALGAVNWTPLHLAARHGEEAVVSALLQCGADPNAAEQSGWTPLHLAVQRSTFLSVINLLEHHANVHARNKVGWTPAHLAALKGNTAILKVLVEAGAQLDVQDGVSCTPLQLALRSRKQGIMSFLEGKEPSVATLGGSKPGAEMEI
The assay is described as follows: KINOMEscan. As to conditions: read-out: % control activity remaining.

For another assay, the target named is T2, CDK4-cyclinD3 (Homo sapiens, UniProt P11802).
T2 construct: purchased Eurofins DiscoverX KINOMEscan
T2 sequence (P11802 whole entry): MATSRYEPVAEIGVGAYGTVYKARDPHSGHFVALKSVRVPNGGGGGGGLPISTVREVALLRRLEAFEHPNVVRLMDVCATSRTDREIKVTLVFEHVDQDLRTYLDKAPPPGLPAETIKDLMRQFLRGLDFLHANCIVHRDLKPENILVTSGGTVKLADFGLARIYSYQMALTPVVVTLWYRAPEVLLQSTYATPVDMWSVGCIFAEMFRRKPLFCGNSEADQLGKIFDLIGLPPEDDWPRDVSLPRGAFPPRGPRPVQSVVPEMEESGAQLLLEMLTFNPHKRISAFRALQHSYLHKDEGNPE
T2 sequence (P30281 whole entry partner): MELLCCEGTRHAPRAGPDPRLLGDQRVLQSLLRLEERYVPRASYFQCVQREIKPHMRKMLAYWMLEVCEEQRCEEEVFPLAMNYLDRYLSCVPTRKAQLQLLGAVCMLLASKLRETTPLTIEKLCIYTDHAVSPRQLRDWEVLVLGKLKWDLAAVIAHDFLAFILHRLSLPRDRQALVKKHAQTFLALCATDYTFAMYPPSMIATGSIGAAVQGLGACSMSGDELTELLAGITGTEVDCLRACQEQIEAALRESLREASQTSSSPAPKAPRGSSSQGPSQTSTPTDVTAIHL
In words: KINOMEscan. As to conditions: read-out: % control activity remaining.

A further assay has as its target T3, CSNK1D (Homo sapiens, UniProt P48730).
T3 construct: purchased Eurofins DiscoverX KINOMEscan
In words: KINOMEscan. As to conditions: read-out: % control activity remaining.

The target of the next assay is T4, DMPK (Homo sapiens, UniProt Q09013).
T4 construct: purchased Eurofins DiscoverX KINOMEscan
T4 sequence (Q09013 1-629): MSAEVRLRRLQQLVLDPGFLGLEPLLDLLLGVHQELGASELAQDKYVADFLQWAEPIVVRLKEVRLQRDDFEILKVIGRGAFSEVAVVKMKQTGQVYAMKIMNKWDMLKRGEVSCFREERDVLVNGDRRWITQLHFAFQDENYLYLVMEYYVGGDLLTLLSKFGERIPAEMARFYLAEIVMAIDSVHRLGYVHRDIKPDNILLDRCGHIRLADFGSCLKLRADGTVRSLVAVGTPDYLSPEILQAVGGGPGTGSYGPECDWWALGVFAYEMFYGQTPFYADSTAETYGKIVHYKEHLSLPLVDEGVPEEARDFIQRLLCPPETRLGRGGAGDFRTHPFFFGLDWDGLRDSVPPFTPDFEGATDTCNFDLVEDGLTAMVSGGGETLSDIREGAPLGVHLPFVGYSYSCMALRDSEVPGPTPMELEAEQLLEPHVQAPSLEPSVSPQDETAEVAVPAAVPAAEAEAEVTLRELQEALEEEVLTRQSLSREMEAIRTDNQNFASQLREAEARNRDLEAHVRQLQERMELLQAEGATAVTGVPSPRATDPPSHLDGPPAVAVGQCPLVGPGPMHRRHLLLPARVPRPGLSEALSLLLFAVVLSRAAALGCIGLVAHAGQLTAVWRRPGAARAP
The assay is described as follows: KINOMEscan. As to conditions: read-out: % control activity remaining.

The next assay concerns the target T5, ERK1 (Homo sapiens, UniProt P27361).
T5 construct: purchased Eurofins DiscoverX KINOMEscan
In words: KINOMEscan. As to conditions: read-out: % control activity remaining.

Another assay has as its target T6, FLT1 (Homo sapiens, UniProt P17948).
T6 construct: purchased Eurofins DiscoverX KINOMEscan
In words: KINOMEscan. As to conditions: read-out: % control activity remaining.

The next assay addresses T7, JNK3 (Homo sapiens, UniProt P53779).
T7 construct: purchased Eurofins DiscoverX KINOMEscan
The assay is described as follows: KINOMEscan. As to conditions: read-out: % control activity remaining.

For another assay, the target named is T8, KIT(V559D,V654A) (Homo sapiens, UniProt P10721, V559D/V654A).
T8 construct: purchased Eurofins DiscoverX KINOMEscan
The assay is described as follows: KINOMEscan. As to conditions: read-out: % control activity remaining.

Another assay deals with T9, MAST1 (Homo sapiens, UniProt Q9Y2H9).
T9 construct: purchased Eurofins DiscoverX KINOMEscan
T9 sequence (Q9Y2H9 whole entry): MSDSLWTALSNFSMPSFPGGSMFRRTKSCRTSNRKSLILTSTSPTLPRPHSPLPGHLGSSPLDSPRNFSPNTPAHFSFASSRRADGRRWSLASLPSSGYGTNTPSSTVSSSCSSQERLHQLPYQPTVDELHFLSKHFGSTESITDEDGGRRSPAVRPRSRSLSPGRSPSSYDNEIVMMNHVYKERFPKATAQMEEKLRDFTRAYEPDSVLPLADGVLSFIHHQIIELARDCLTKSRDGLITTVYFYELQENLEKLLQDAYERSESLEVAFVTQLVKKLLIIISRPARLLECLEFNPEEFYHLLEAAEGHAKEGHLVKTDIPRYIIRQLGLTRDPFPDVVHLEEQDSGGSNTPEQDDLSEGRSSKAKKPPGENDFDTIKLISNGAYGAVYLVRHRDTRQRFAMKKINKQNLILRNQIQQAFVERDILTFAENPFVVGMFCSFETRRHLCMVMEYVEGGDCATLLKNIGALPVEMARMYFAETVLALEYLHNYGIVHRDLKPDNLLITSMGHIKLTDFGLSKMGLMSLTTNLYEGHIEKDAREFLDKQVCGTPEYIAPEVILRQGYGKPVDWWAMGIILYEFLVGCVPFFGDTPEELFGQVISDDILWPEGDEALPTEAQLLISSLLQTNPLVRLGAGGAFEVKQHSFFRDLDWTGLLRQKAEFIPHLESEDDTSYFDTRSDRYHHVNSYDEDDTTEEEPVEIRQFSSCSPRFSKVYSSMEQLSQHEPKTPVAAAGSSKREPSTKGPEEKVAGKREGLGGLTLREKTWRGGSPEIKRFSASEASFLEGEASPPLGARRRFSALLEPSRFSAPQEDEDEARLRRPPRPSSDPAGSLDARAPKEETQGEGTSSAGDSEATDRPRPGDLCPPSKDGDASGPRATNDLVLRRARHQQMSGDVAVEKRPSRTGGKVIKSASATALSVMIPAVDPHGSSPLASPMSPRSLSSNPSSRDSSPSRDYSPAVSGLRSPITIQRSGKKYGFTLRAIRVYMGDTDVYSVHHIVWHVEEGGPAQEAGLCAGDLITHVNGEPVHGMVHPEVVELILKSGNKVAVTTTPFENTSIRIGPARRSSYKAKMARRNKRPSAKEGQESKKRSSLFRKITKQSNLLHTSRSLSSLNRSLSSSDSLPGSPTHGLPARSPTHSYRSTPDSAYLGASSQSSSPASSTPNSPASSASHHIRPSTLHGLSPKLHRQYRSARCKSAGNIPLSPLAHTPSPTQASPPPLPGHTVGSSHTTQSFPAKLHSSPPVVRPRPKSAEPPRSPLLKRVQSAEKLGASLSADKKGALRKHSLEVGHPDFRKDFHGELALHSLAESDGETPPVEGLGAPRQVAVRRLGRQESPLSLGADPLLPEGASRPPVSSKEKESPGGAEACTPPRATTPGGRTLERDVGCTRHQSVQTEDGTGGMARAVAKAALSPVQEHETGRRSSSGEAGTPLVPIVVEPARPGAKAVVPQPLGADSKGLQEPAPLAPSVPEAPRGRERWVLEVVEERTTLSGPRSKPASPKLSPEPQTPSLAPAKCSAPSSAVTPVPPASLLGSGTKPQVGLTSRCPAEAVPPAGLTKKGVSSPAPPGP
The assay is described as follows: KINOMEscan. As to conditions: read-out: % control activity remaining.

The next assay addresses T10, MINK (Homo sapiens, UniProt Q8N4C8).
T10 construct: purchased Eurofins DiscoverX KINOMEscan
In words: KINOMEscan. As to conditions: read-out: % control activity remaining.

The target in the next assay is T11, MLCK (Homo sapiens, UniProt Q32MK0).
T11 construct: purchased Eurofins DiscoverX KINOMEscan
T11 sequence (Q32MK0 1-819): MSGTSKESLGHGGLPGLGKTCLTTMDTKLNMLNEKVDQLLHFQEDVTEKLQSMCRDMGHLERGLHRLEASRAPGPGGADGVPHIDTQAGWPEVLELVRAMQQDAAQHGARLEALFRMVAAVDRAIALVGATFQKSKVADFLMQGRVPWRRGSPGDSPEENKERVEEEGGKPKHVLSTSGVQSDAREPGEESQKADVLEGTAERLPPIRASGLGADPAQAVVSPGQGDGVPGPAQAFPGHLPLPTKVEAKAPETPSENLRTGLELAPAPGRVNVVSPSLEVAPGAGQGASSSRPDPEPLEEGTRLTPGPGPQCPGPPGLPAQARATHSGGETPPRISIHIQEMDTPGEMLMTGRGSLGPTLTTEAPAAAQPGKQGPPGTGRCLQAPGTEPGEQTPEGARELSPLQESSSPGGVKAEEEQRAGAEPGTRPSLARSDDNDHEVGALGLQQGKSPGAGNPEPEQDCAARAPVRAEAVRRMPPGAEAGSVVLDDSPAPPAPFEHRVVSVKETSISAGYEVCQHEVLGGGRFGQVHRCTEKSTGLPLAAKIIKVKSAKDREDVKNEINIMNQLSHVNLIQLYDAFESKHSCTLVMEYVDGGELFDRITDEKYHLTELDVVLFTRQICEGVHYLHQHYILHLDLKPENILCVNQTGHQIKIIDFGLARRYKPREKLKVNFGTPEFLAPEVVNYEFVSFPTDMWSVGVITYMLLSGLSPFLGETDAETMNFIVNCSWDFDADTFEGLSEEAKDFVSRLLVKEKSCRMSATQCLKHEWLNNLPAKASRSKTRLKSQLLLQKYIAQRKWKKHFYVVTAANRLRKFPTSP
The assay is described as follows: KINOMEscan. As to conditions: for remaining binding at 1 µM: read-out: % control activity remaining.

For another assay, the target named is T12, MRCKA (Homo sapiens, UniProt Q5VT25).
T12 construct: purchased Eurofins DiscoverX KINOMEscan
The assay is described as follows: KINOMEscan. As to conditions: read-out: % control activity remaining.

The target of another assay is T13, TNK2 (Homo sapiens, UniProt Q07912).
T13 construct: purchased Eurofins DiscoverX KINOMEscan
T13 sequence (Q07912 whole entry): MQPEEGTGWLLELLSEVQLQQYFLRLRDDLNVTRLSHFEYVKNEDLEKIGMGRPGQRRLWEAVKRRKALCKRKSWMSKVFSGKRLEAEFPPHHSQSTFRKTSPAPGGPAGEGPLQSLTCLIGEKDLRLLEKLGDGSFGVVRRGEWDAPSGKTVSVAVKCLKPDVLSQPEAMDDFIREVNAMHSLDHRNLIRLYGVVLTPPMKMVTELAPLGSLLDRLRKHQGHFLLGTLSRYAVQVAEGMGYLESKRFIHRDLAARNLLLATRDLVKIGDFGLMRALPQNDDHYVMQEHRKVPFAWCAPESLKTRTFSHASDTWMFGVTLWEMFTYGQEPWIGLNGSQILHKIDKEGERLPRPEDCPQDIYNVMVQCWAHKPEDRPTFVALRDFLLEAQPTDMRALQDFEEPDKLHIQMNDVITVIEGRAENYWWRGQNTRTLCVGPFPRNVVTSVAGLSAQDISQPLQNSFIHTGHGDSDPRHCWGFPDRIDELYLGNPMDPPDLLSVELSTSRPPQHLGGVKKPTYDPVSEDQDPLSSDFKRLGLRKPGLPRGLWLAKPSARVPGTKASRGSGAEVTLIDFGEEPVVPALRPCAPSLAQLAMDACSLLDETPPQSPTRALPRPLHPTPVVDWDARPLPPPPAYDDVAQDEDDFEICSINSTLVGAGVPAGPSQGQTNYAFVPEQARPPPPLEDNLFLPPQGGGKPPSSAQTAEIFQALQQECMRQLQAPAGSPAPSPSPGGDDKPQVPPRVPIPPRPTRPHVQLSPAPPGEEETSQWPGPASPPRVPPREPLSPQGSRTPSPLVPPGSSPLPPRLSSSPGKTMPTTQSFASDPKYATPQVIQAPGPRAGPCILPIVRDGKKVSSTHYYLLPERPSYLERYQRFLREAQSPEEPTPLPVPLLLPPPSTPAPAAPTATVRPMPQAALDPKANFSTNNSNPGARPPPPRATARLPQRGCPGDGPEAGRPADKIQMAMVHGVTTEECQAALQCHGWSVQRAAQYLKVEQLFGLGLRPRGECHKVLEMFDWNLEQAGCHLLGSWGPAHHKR
The assay is described as follows: KINOMEscan. As to conditions: read-out: % control activity remaining.

T7 sequence (P53779 whole entry): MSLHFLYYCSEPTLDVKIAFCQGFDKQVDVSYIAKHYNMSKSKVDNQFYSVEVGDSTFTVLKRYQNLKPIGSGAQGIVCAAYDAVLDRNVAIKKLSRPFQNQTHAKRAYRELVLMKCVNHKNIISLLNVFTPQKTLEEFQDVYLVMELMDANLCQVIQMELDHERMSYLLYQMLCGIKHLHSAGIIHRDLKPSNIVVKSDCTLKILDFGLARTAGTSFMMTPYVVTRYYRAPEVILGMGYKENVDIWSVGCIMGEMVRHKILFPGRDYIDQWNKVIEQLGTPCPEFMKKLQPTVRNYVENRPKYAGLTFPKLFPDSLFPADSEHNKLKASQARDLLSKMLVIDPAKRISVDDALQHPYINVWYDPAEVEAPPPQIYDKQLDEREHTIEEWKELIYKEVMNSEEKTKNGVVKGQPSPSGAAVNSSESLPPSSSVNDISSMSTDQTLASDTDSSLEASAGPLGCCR
T5 sequence (P27361 whole entry): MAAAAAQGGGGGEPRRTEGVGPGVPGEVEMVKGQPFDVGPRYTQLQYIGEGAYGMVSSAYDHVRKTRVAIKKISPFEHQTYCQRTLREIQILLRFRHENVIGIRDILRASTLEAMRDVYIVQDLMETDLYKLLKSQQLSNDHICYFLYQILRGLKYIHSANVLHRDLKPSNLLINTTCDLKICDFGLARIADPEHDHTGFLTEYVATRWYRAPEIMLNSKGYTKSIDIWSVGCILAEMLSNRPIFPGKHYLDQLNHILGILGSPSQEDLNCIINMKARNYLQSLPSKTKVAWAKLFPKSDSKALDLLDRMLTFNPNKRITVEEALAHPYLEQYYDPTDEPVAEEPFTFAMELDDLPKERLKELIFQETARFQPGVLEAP
T3 sequence (P48730 whole entry): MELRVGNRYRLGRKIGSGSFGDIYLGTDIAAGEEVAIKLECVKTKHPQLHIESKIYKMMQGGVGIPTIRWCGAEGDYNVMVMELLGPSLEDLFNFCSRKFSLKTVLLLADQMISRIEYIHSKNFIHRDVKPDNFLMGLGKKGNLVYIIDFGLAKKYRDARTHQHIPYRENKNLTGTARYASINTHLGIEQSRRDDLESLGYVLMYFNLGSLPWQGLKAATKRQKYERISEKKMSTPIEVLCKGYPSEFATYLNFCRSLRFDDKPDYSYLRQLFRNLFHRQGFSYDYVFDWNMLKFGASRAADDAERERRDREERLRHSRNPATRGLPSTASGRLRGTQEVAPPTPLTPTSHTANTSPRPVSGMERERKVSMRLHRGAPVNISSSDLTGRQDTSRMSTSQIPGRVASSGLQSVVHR

Consider `Clc1cc(NCC2CC2)c2ncc(-c3ccc4[nH]ncc4c3)n2n1` [compound 2, 6-Chloro-N-(cyclopropylmethyl)-3-(1H-indazol-5-yl)imidazo[1,2-b]pyridazin-8-amine], for which, in [1], the “kinases with >70% inhibition / wild-type and mutant kinases tested” value is 26/455. Also, the remaining binding at 1 µM at ANKK1 amounted to 75%; at CDK4-cyclinD3, 78%; at CSNK1D, 64%; on DMPK, 84%; at ERK1 it was 95%; on FLT1, 90%. Moreover, the remaining binding at 1 µM at JNK3 was determined as 89%; on KIT(V559D,V654A), 7.8%; on MAST1, 91%; at MINK it was 72%; at MLCK, 80%; at MRCKA it was 90%. The remaining binding at 1 µM at TNK2 was determined as 86%.

As to `O=C(CN1CCOCC1)N[C@H]1CC[C@H](Nc2cc(Cl)nn3c(-c4ccc5[nH]ncc5c4)cnc23)CC1` [compound 26], the “kinases with >70% inhibition / wild-type and mutant kinases tested” value in [1] was 54/455. Besides, the remaining binding at 1 µM was found to be 48% on ANKK1; 100% on CDK4-cyclinD3; 61% at CSNK1D; 99% on DMPK; 100% at ERK1; 11% at FLT1. Also, the remaining binding at 1 µM came to 79% on JNK3; 0.7% on KIT(V559D,V654A); 73% at MAST1; 57% on MINK; 6.6% at MLCK; 82% on MRCKA. In addition, the remaining binding at 1 µM at TNK2 was found to be 93%. For the same compound, the inhibition at 1 µM at MLCK (read-out: Probe binding inhibited) is greater than 90%.

On to `CN1CCC(CNc2cc(Cl)nn3c(-c4cc5nc(Nc6ccccc6)[nH]c5cc4F)cnc23)CC1` [compound 31, 6-Chloro-3-(6-fluoro-2-(phenylamino)-1H-benzo[d]imidazol-5-yl)-N-((1-methylpiperidin-4-yl)methyl)imidazo[1,2-b]pyridazin-8-amine], for which the “kinases with >70% inhibition / wild-type and mutant kinases tested” value in assay [1] is recorded as 4/455. For the same compound, the remaining binding at 1 µM amounted to 100% at ANKK1; 97% at CDK4-cyclinD3; 100% at CSNK1D; 89% at DMPK; 92% on ERK1; 45% on FLT1. The remaining binding at 1 µM at JNK3 came to 99%; on KIT(V559D,V654A) it was 27%; on MAST1, 63%; on MINK it was 87%; on MLCK it was 89%; at MRCKA, 97%. The remaining binding at 1 µM on TNK2 worked out at 100%.

(Values after PMC6437697 (Journal of Medicinal Chemistry, 2019).)
